These are literature values, as cited in patent US20130178603A1, “MULTI-MODE CANCER TARGETED NANOPARTICULATE SYSTEM AND A METHOD OF SYNTHESIZING THE SAME” (priority 2012, published 2013).

Each structure is given as a SMILES string.

The conditions of the data set: after I.V administration.

For the compound `CN(Cc1cnc2nc(N)nc(N)c2n1)c1ccc(C(=O)N[C@@H](CCC(=O)O)C(=O)O)cc1` [MTX, methotrexate], the mean distribution half-life was 1.5 to 3.5 h.
